Laboratory results taken from the METLIN SMRT retention time set (Domingo-Almenara et al. 2019).

Test: gradient 5% acetonitrile 3 min, to 50% in 2 min, to 85% in 15 min, held 3 min, 100 µL/min
Details: column: Zorbax Extend-C18 2.1 x 50 mm; eluents: water / acetonitrile, 0.1% formic acid
In short: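 Each retention time is based on an adduct peak selected computationally and verified by manual inspection. Measurements used HPLC–quadrupole time-of-flight mass spectrometry in positive and negative ionization mode on mixtures of ~100 pure standards. Chromatography ran on a Zorbax Extend-C18 column (2.1 × 50 mm, 1.8 μm) at 100 μL/min with water and acetonitrile, each containing 0.1% formic acid, and dead and dwell volumes of 40 μL and 900 μL.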

Row | RP-LC retention time [s] | Structure (SMILES)
1 | 629 | COc1ccccc1N1CCN(C(=O)C2=CCN(Cc3ccccc3)CC2)CC1
2 | 618 | Cc1ccc(F)cc1S(=O)(=O)N[C@@H]1CN(c2ncccn2)C[C@H]1CN(C)C
3 | 999 | CCCS(=O)(=O)c1nc2ccc(NS(=O)(=O)c3ccc(C)cc3C)cc2s1
4 | 938 | COc1ccc(NC(=O)Nc2cc(F)c3nc(N4CCOCC4)ccc3c2)cc1OC
5 | 641 | O=C(Cn1ccn(-c2cccc(Cl)c2)c(=O)c1=O)NCc1ccco1
6 | 685 | CCc1nnc2c(=O)n(CC(=O)NCc3ccccc3F)c3cccnc3n12
7 | 909 | COc1ccc2cc(C(=O)N3CCN(c4cc(=O)n(C(C)C)c(=O)n4C(C)C)CC3)[nH]c2c1
8 | 866 | O=C1CCCCC(Cc2ccccc2)(C(=O)NCc2ccc(Cl)cc2)N1 (configuration not stated)
9 | 598 | COc1cccc(NC(=O)c2cn3c(n2)CCCC3)c1
10 | 525 | O=C(C1CCCN(c2nnc3ccc(Cl)cn23)C1)N1CCN(C2CCCCC2)CC1 (configuration not stated)
11 | 608 | CCC(C)NC(=O)C1CCCN(c2cnc3nccnc3c2)C1 (configuration not stated)
12 | 808 | Cc1cccc(-n2cc(C(=O)OCc3cccnc3)c3ccccc3c2=O)c1
13 | 647 | Cc1ccc(Cl)cc1NC(=O)N1CCC(N2CCN(Cc3ccccn3)C(=O)C2=O)CC1
14 | 947 | CCCc1nc(-c2c(C)cc(C)nc2NC(=O)c2ccc(F)c(F)c2)no1
15 | 748 | COc1cccc(C(C)NC(=O)CN2C(=O)NC3(CCCCC3)C2=O)c1 (configuration not stated)
16 | 880 | COc1ccc(CC(=O)N2CCC[C@@H]2C(=O)NCc2csc(-c3ccccc3)n2)c(Cl)c1
17 | 1250 | CCCN(C(=O)c1ccco1)c1nc(-c2ccccc2)cs1
18 | 694 | Clc1ccc2ncnc(NCc3ccc4c(c3)OCO4)c2c1
19 | 823 | Cc1cc(C)c2sc(N(Cc3cccnc3)C(=O)c3snnc3C)nc2c1
20 | 1320 | CCCc1ccc(S(=O)(=O)N2CCCC2c2nc(-c3ccc(C)cc3)no2)cc1 (configuration not stated)
21 | 772 | COc1cc(C(=O)Nc2ccc(C)cc2-c2nc3ccccc3[nH]c2=O)cc(OC)c1OC
22 | 818 | CN1C(=O)c2cccnc2Sc2cc(NC(=O)CCc3ccccc3)ccc21

Row | RP-LC retention time [s] | Structure (SMILES)
23 | 614 | O=C(CCC[C@@H]1[C@H]2CCCN3CCC[C@@H](CN1C(=O)c1ccco1)[C@@H]23)Nc1ccccc1
24 | 1040 | Cc1cc(=O)n(CC(=O)Nc2ccc(F)cc2)c(-c2ccc(F)cc2)n1
25 | 634 | CC1CCCN(CCCNC(=O)c2nnc(-c3ccc(S(=O)(=O)N4CCOCC4)cc3)o2)C1 (configuration not stated)
26 | 899 | Cc1ccccc1NC(=O)N1CCCC(C)(C(=O)NCc2ccc(F)cc2)C1 (configuration not stated)
27 | 666 | O=C(CN1CCC2(CC1)N=C(c1ccc(F)cc1)C(=O)N2)Nc1ccc(F)cc1F
28 | 993 | CCOC(=O)c1ccccc1NC(=O)N1CCC(C(=O)NCc2csc(-c3ccccc3)n2)CC1
29 | 677 | O=C(c1noc2ccc(S(=O)(=O)N3CCN(c4ccccn4)CC3)cc12)N1CCCC1
30 | 658 | O=C(Nc1cnc(N2CCCC2)nc1)c1ccsc1
31 | 784 | O=C(NCc1csc(-c2ccccc2)n1)C1CCN(C(=O)Nc2ccc(F)cc2F)CC1
32 | 1010 | CCC(=O)N1c2ccc(S(=O)(=O)N3CCCCC3)cc2CC1C(=O)NC1CCCCCC1 (configuration not stated)
33 | 703 | CNC(=O)N1CCCN(C2=NS(=O)(=O)C(c3ccc(Cl)cc3)=C2C)CC1
34 | 619 | O=C(Cn1nc2n(c1=O)CCCC2)NCc1ccc2c(c1)OCO2
35 | 835 | Cc1ccc(C(=O)N2CCC(n3nc(-c4ccsc4)ccc3=O)CC2)cc1
36 | 906 | CC(C)CCNCC(O)Cn1c2ccc(Br)cc2c2cc(Br)ccc21 (configuration not stated)
37 | 796 | CCNC(=O)C1CCN(S(=O)(=O)c2ccc(OCC)c(C)c2)CC1
38 | 1220 | O=C(Nc1nc(-c2ccccc2)cs1)c1ccc(COc2c(F)c(F)c(F)c(F)c2F)o1
39 | 769 | O=C(c1ccc2ccccc2n1)N1CC2CN(S(=O)(=O)c3ccccc3)CC(C1)O2
40 | 902 | O=C(NCCCc1ccccc1)c1cccc2c1CCN2C(=O)C1CC1
41 | 738 | COc1ccccc1C(=O)N1CCC2(C1)C(=O)N(C)c1ccccc12 (configuration not stated)
42 | 643 | CN(C)c1ncncc1N1CCC(C(=O)NCc2ccc(Cl)cc2)CC1
43 | 590 | CCN(CC)CCNC(=O)C1CCCN(c2ccc(-c3ccc(C)cc3)nn2)C1 (configuration not stated)
44 | 722 | O=C(Cc1c[nH]c2ccccc12)N1CCCN(c2cc(-c3ccc(Br)cc3)[nH]n2)CC1

Row | RP-LC retention time [s] | Structure (SMILES)
45 | 576 | Cc1ccc(S(=O)(=O)NCC2CCN(C(=O)Oc3ccccc3)CC2)s1
46 | 737 | O=C(NCc1cccs1)c1ccc(-n2cccn2)nn1
47 | 843 | CCOc1cccc(NC2=NS(=O)(=O)c3ccccc32)c1
48 | 961 | COc1ccc(-c2nc3cnccn3c2Nc2cccc(Cl)c2)cc1
49 | 678 | O=C1c2cccc3c2[C@H](CCC3)CN1[C@@H]1CN2CCC1CC2
50 | 733 | CC1=C(c2ccccc2)C=NNCC1=O
51 | 665 | CCn1ccc2cc(S(=O)(=O)N3CCC(C(=O)NCCCN4CCCCC4C)CC3)ccc21 (configuration not stated)
52 | 716 | Nc1cc(C2CCN(C(=O)c3ccc(Br)cc3)CC2)no1
53 | 910 | Clc1ccccc1/C=C/c1ccnc2ccccc12
54 | 808 | CCCOc1ccc(C2NC(=O)NC(C)=C2C(=O)OCC(F)(F)F)cc1OC (configuration not stated)
55 | 630 | Cc1ccc2c(C(=O)Nc3ccc(N4CCOCC4)cc3)cc(NC(=O)C3CCC3)cc2n1
56 | 657 | CCC(=O)N1CCc2c(C(=O)O)cccc21
57 | 584 | CCC(=O)N1CCc2cc(N3CC(C(=O)N4CCN(c5ccccn5)CC4)CC3=O)ccc21 (configuration not stated)
58 | 886 | COc1cc(NC(=O)c2c(S(=O)(=O)Nc3ccc(Cl)cc3)n[nH]c2C)cc(OC)c1
59 | 745 | O=C(O)c1cnc(NCC2CC2)nc1-c1ccccc1
60 | 764 | Cc1nnc(N2CCCC(C(=O)NCc3ccc(OC(C)C)cc3)C2)c2nn(-c3ccccc3)c(C)c12 (configuration not stated)
61 | 617 | COc1ccc(NC(=O)N2CCC(c3nc4cccnc4n3C)C2)cc1 (configuration not stated)
62 | 968 | Cc1ccc(C)c(N2CCN(C(=O)c3csc(C(=O)NC4CC4)n3)CC2)c1
63 | 1080 | CCn1nccc1-c1cccc(-c2noc(-c3cccc(NC(=O)c4ccco4)c3)n2)c1
64 | 963 | Nc1ccc2c(c1)Cc1cc(Cl)c(Cl)cc1-2
65 | 669 | COc1ccc(S(=O)(=O)N2CCCC(C(=O)NCCO)C2)cc1C (configuration not stated)
66 | 710 | Cc1ccccc1Nc1c(-c2ccc(O)cc2)nc2ccc(Cl)cn12

Row | RP-LC retention time [s] | Structure (SMILES)
67 | 985 | CCN1C(=O)c2ccccc2Oc2ccc(C(=O)NCC(C)c3ccccc3)cc21 (configuration not stated)
68 | 939 | Cc1cccc(S(=O)(=O)N2C[C@H](c3nc(-c4ccncc4)no3)[C@@H](C)C2)c1
69 | 595 | COc1cc(C(=O)N2CCC(CC(=O)N3CCN(c4ccccn4)CC3)CC2)cc(OC)c1OC
70 | 931 | CCC1=NS(=O)(=O)c2cccnc2N1c1ccc(CC)cc1
71 | 695 | O=C(CSc1nnc2ccccn12)Nc1nc(-c2ccccc2)ns1
72 | 820 | COc1ccc(NC(=O)N2CCc3nc(-c4ccccc4)sc3C2)cc1OC
73 | 761 | O=C(c1ccc(OC(F)(F)F)cc1)N1C[C@@H]2C[C@H]1C[C@@H]2NS(=O)(=O)c1cccnc1
74 | 607 | CCOC(=O)c1nc(NC2CCN(Cc3ccccc3)CC2)c2ccccc2n1
75 | 569 | O=C1CN(C(=O)c2cnccn2)c2ccccc2N1
76 | 918 | O=C(O)Cc1sc(Nc2cccc3ccccc23)nc1-c1ccc(F)cc1
77 | 1040 | Cc1ccc(Cl)cc1NC(=O)N1CCCC(C)(C(=O)NCc2ccccc2)C1 (configuration not stated)
78 | 933 | CCc1ccc(-c2cc(C(F)(F)F)on2)cc1S(=O)(=O)N1CCN(c2ccccn2)CC1
79 | 970 | Cc1cc2nc(C(=O)Nc3cccc(F)c3)cc(C)n2n1
80 | 756 | Cc1ccc(-n2nnnc2CN2CCN(S(=O)(=O)N(C)C)CC2)cc1
81 | 686 | C[C@@H]1C/C=C/C=C/C=C/C=C/[C@H](O[C@@H]2O[C@H](C)[C@@H](O)[C@H](N)[C@@H]2O)C[C@@H]2O[C@](O)(C[C@@H](O)C[C@H]3O[C@@H]3/C=C/C(=O)O1)C[C@H](O)[C@H]2C(=O)O
82 | 606 | CCOC(=O)N1CCN(C(=O)C2CCCN(c3ccc(-c4ccco4)nn3)C2)CC1 (configuration not stated)
83 | 1300 | Cc1ccc(-c2nnc(-c3nc(NCCC4=CCCCC4)c4ccccc4n3)o2)cc1
84 | 978 | Cc1cc(C)n(Cc2nc(-c3ccc(NC(=O)Cc4ccccc4C)cc3)oc2C)n1
85 | 677 | Cc1ccc(CNC(=O)C(C)C2CCOCC2)o1 (configuration not stated)
86 | 693 | CC(C)CC(NC(=O)C1CCC(C)CC1)C(=O)N1CCN(c2ccccn2)CC1 (configuration not stated)

Row | Structure (SMILES) | RP-LC retention time [s]
87 | O=C(CN1CC=C(c2cnn(-c3ccccc3)c2)CC1)NCc1ccco1 | 646
